Assay results from patent US20250171437A1 (Agios Pharmaceuticals,Inc., priority 2022, published 2025).

Molecular target: T1, human PAH with the R408W mutation (A375 R408W cells) (Homo sapiens, UniProt P00439, R408W)
T1 construct: expressed in transfected cells
T1 sequence (P00439 1-452 R408W): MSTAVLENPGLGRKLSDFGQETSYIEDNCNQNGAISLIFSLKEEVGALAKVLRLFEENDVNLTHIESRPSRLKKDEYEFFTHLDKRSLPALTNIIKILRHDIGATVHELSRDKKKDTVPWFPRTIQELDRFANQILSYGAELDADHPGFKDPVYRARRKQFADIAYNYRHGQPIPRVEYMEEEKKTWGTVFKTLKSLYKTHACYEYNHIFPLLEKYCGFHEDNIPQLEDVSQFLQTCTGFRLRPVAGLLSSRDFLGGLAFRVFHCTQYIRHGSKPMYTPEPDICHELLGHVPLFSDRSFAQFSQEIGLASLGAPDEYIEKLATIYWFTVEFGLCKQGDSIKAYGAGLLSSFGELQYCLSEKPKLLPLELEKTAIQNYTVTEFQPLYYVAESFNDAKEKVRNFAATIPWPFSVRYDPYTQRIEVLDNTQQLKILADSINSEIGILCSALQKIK
Assay: Cell Based Phenylalanine Flux Assay
Details: 24 hrs with compound, then 20 μM sepiapterin and 800 μM 13C9,15N-Phenylalanine for 4 hours, 13C-Tyrosine by LC-MS, average where tested multiple times
Method in brief: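 Phenylalanine-to-tyrosine flux is measured in A375 cells carrying stable human R408W PAH. After 24 h compound exposure, 13C9,15N-Phe (800 μM) with sepiapterin (20 μM) is supplied for 4 h and media 13C-Tyr is read by LC-MS; AC50s are binned.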

[1] = A375 cells expressing R408W PAH

Work on `CN1CCN(c2nc(C(F)F)c(C(=O)N3CCc4[nH]cnc4[C@@H]3c3nc4cc(F)ccc4o3)o2)CC1` [Example 404, (R)-(4-(difluoromethyl)-2-(4-methylpiperazin-1-yl)oxazol-5-yl)(4-(5-fluorobenzo[d]oxazol-2-yl)-6,7-dihydro-1H-imidazo[4,5-c]pyridin-5(4H)-yl)methanone] yielded an AC50 (A375 R408W cells) of 1000 to 5000 nM.
`CN(C)CCOc1ccc2c(C(=O)N3CCc4[nH]cnc4C3c3nc4cc(F)ccc4o3)cnn2c1` (centres unmarked) was tested, and the AC50 [1] was no less than 5000 nM.
Work on `CC1CN(C(=O)c2ocnc2C(F)F)[C@H](c2nc3cccc(F)c3o2)c2nc[nH]c21` (single isomer, unassigned) [Example 803] yielded an AC50 (A375 R408W cells) of no more than 500 nM.
`COc1ccc2c(C(=O)N3CCc4[nH]cnc4[C@H]3c3nc4cccc(F)c4o3)cnn2c1` [Example 325, (S)-(4-(7-fluorobenzo[d]oxazol-2-yl)-6,7-dihydro-1H-imidazo[4,5-c]pyridin-5(4H)-yl)(6-methoxypyrazolo[1,5-a]pyridin-3-yl)methanone] was tested, and the AC50 (A375 R408W cells) was no more than 500 nM.
For `COc1cccc2nc([C@@H]3c4nc[nH]c4CCN3C(=O)c3oc(C(C)(C)O)nc3C(F)F)oc12` [Example 455, (S)-(4-(difluoromethyl)-2-(2-hydroxypropan-2-yl)oxazol-5-yl)(4-(7-methoxybenzo[d]oxazol-2-yl)-6,7-dihydro-1H-imidazo[4,5-c]pyridin-5(4H)-yl)methanone], the AC50 (A375 R408W cells) was no more than 500 nM.
Molecule `O=C(CC1(O)CCC1)N1CCc2[nH]cnc2[C@H]1c1nc2cc(F)ccc2o1` [Example 55, (S)-1-(4-(5-fluorobenzo[d]oxazol-2-yl)-6,7-dihydro-1H-imidazo[4,5-c]pyridin-5(4H)-yl)-2-(1-hydroxycyclobutyl)ethanone] has an AC50 (A375 R408W cells) of 500 to 1000 nM.
For `Cc1cc(F)c2oc([C@H]3c4nc[nH]c4CCN3C(=O)c3ocnc3C(F)F)nc2c1` [Example 502, (R)-(4-(difluoromethyl)oxazol-5-yl)(4-(7-fluoro-5-methylbenzo[d]oxazol-2-yl)-6,7-dihydro-1H-imidazo[4,5-c]pyridin-5(4H)-yl)methanone], the AC50 (A375 R408W cells) was no more than 500 nM.
`O=C(c1cnco1)N1CCc2[nH]cnc2[C@H]1c1nc2ccccc2o1` [Example 547, (S)-(4-(benzo[d]oxazol-2-yl)-6,7-dihydro-1H-imidazo[4,5-c]pyridin-5(4H)-yl)(oxazol-5-yl)methanone] showed an AC50 (A375 R408W cells) of 500 to 1000 nM.
`O=C(c1ocnc1C(F)F)N1CCc2[nH]cnc2[C@H]1c1nc2cccc(F)c2o1` [Example 173, (S)-(4-(difluoromethyl)oxazol-5-yl)(4-(7-fluorobenzo[d]oxazol-2-yl)-6,7-dihydro-1H-imidazo[4,5-c]pyridin-5(4H)-yl)methanone] gave an AC50 (A375 R408W cells) of no more than 500 nM.
In the case of `Cc1ccc2oc(C3c4nc[nH]c4CCN3C(=O)c3cnco3)nc2c1` (centres unmarked), the AC50 [1] is reported as 1000 to 5000 nM.
`CC(C)(O)c1nc(C(=O)N2CCc3[nH]cnc3C2c2nc3c(F)cccc3o2)no1` (centres unmarked) was tested, and the AC50 [1] was no less than 5000 nM.
For `O=C(c1ocnc1C(F)F)N1CCc2[nH]cnc2[C@H]1c1nc2c(F)cccc2o1` [Example 169, (S)-(4-(difluoromethyl)oxazol-5-yl)(4-(4-fluorobenzo[d]oxazol-2-yl)-6,7-dihydro-1H-imidazo[4,5-c]pyridin-5(4H)-yl)methanone], the AC50 (A375 R408W cells) was no more than 500 nM.
In the case of `O=C(c1ccn(-c2ccccn2)n1)N1CCc2[nH]cnc2C1c1nc2cccc(F)c2o1` (centres unmarked), the AC50 [1] is reported as no less than 5000 nM.
With `Cc1ncoc1C(=O)N1CCc2[nH]cnc2[C@H]1c1nc2ccccc2o1` [Example 793, (S)-(4-(benzo[d]oxazol-2-yl)-6,7-dihydro-1H-imidazo[4,5-c]pyridin-5(4H)-yl)(4-methyloxazol-5-yl)methanone] the AC50 (A375 R408W cells) was no more than 500 nM.
In the case of `O=C(c1ccnn1C(F)F)N1CCc2[nH]cnc2[C@H]1c1nc2ccc(F)c(F)c2o1` [Example 513, (S)-(4-(6,7-difluorobenzo[d]oxazol-2-yl)-6,7-dihydro-1H-imidazo[4,5-c]pyridin-5(4H)-yl)(1-(difluoromethyl)-1H-pyrazol-5-yl)methanone], the AC50 (A375 R408W cells) is reported as 500 to 1000 nM.
With `O=C(c1oc(C2CC2)nc1C(F)F)N1CCc2[nH]cnc2[C@H]1c1nc2cc(F)ccc2o1` [Example 53, (S)-(2-cyclopropyl-4-(difluoromethyl)oxazol-5-yl)(4-(5-fluorobenzo[d]oxazol-2-yl)-6,7-dihydro-1H-imidazo[4,5-c]pyridin-5(4H)-yl)methanone] the AC50 (A375 R408W cells) was no more than 500 nM.
`O=C(c1ocnc1C(F)F)N1CCc2[nH]cnc2[C@H]1c1nc2cc(Br)ccc2o1` [Example 149, (S)-(4-(5-bromobenzo[d]oxazol-2-yl)-6,7-dihydro-1H-imidazo[4,5-c]pyridin-5(4H)-yl)(4-(difluoromethyl)oxazol-5-yl)methanone] was tested, and the AC50 (A375 R408W cells) was no more than 500 nM.
`O=C(c1oc(-c2ccc(C(F)(F)F)cn2)nc1C(F)F)N1CCc2[nH]cnc2[C@@H]1c1nc2cccc(F)c2o1` [Example 634, (R)-(4-(difluoromethyl)-2-(5-(trifluoromethyl)pyridin-2-yl)oxazol-5-yl)(4-(7-fluorobenzo[d]oxazol-2-yl)-6,7-dihydro-1H-imidazo[4,5-c]pyridin-5(4H)-yl)methanone] gave an AC50 (A375 R408W cells) of no more than 500 nM.
`O=C(c1nnc(-c2ncccc2F)o1)N1CCc2[nH]cnc2[C@@H]1c1nc2cccc(C(F)(F)F)c2o1` [Example 839, (R)-(5-(3-fluoropyridin-2-yl)-1,3,4-oxadiazol-2-yl)(4-(7-(trifluoromethyl)benzo[d]oxazol-2-yl)-6,7-dihydro-1H-imidazo[4,5-c]pyridin-5(4H)-yl)methanone] was tested, and the AC50 (A375 R408W cells) was 500 to 1000 nM.
Work on `O=C(c1cnn2cc(CCN3CCOCC3)ccc12)N1CCc2[nH]cnc2C1c1nc2cc(F)ccc2o1` (centres unmarked) yielded an AC50 [1] of 1000 to 5000 nM.
In the case of `COc1cccc2nc([C@@H]3c4nc[nH]c4CCN3C(=O)c3ccnn3C)oc12` [Example 749, (S)-(4-(7-methoxybenzo[d]oxazol-2-yl)-6,7-dihydro-1H-imidazo[4,5-c]pyridin-5(4H)-yl)(1-methyl-1H-pyrazol-5-yl)methanone], the AC50 (A375 R408W cells) is reported as no more than 500 nM.
`CCOC(=O)N1CCN(c2ccc3c(C(=O)N4CCc5[nH]cnc5C4c4nc5cc(F)ccc5o4)cnn3c2)CC1` (centres unmarked) gave an AC50 [1] of no less than 5000 nM.
In the case of `Cc1ccc2oc([C@@H]3c4nc[nH]c4CCN3C(=O)c3ccnn3C(F)F)nc2c1` [Example 313, (S)-(1-(difluoromethyl)-1H-pyrazol-5-yl)(4-(5-methylbenzo[d]oxazol-2-yl)-6,7-dihydro-1H-imidazo[4,5-c]pyridin-5(4H)-yl)methanone], the AC50 (A375 R408W cells) is reported as no more than 500 nM.
`CC(C)(O)c1nc(C(F)F)c(C(=O)N2CCc3[nH]cnc3[C@@H]2c2nc3ccccc3o2)o1` [Example 469, (R)-(4-(benzo[d]oxazol-2-yl)-6,7-dihydro-1H-imidazo[4,5-c]pyridin-5(4H)-yl)(4-(difluoromethyl)-2-(2-hydroxypropan-2-yl)oxazol-5-yl)methanone] showed an AC50 (A375 R408W cells) of 1000 to 5000 nM.
With `Cn1nc(C(F)F)nc1C(=O)N1CCc2[nH]cnc2[C@@H]1c1nc2cccc(F)c2o1` [Example 286, (R)-(3-(difluoromethyl)-1-methyl-1H-1,2,4-triazol-5-yl)(4-(7-fluorobenzo[d]oxazol-2-yl)-6,7-dihydro-1H-imidazo[4,5-c]pyridin-5(4H)-yl)methanone] the AC50 (A375 R408W cells) was 1000 to 5000 nM.
For `COc1cccc2oc([C@@H]3c4nc[nH]c4CCN3C(=O)c3nnc(-c4cnn(C)c4)o3)nc12` [Example 626, (S)-(4-(4-methoxybenzo[d]oxazol-2-yl)-6,7-dihydro-1H-imidazo[4,5-c]pyridin-5(4H)-yl)(5-(1-methyl-1H-pyrazol-4-yl)-1,3,4-oxadiazol-2-yl)methanone], the AC50 (A375 R408W cells) was no more than 500 nM.
Molecule `COc1ccc2c(C(=O)N3CCc4[nH]cnc4[C@H]3c3nc4cc(F)ccc4o3)cnn2c1` [Example 73, (S)-(4-(5-fluorobenzo[d]oxazol-2-yl)-6,7-dihydro-1H-imidazo[4,5-c]pyridin-5(4H)-yl)(6-methoxypyrazolo[1,5-a]pyridin-3-yl)methanone] has an AC50 (A375 R408W cells) of 500 to 1000 nM.
`O=C(c1ocnc1C(F)(F)F)N1CCc2[nH]cnc2[C@H]1c1nc2c(F)ccc(F)c2o1` [Example 795, (S)-(4-(4,7-difluorobenzo[d]oxazol-2-yl)-6,7-dihydro-1H-imidazo[4,5-c]pyridin-5(4H)-yl)(4-(trifluoromethyl)oxazol-5-yl)methanone] was tested, and the AC50 (A375 R408W cells) was no more than 500 nM.
With `O=C(c1nnc(-c2ccn(C(F)F)n2)o1)N1CCc2[nH]cnc2[C@H]1c1nc2cccc(C(F)(F)F)c2o1` [Example 854, (S)-(5-(1-(difluoromethyl)-1H-pyrazol-3-yl)-1,3,4-oxadiazol-2-yl)(4-(7-(trifluoromethyl)benzo[d]oxazol-2-yl)-6,7-dihydro-1H-imidazo[4,5-c]pyridin-5(4H)-yl)methanone] the AC50 (A375 R408W cells) was no more than 500 nM.
`CC(O)c1nc(Cl)c(C(=O)N2CCc3[nH]cnc3[C@H]2c2nc3cc(F)ccc3o2)o1` (single isomer, unassigned) [Example 235] gave an AC50 (A375 R408W cells) of 1000 to 5000 nM.
“(R)-(3-(difluoromethyl)-1-methyl-1H-1,2,4-triazol-5-yl)(4-(4-methylbenzo[d]oxazol-2-yl)-6,7-dihydro-1H-imidazo[4,5-c]pyridin-5(4H)-yl)methanone [Example 814]” was tested, and the AC50 (A375 R408W cells) was no more than 500 nM.
Molecule `O=C(c1oc(C2(O)CCC2)nc1C(F)F)N1CCc2[nH]cnc2[C@@H]1c1nc2cc(F)ccc2o1` [Example 690, (R)-(4-(difluoromethyl)-2-(1-hydroxycyclobutyl)oxazol-5-yl)(4-(5-fluorobenzo[d]oxazol-2-yl)-6,7-dihydro-1H-imidazo[4,5-c]pyridin-5(4H)-yl)methanone] has an AC50 (A375 R408W cells) of 1000 to 5000 nM.
